Assay results published in US20240360157A1, “TYK2 INHIBITORS” (BIOGEN MA INC., priority 2021, published 2024).

Assays:
Type in all cases: biochemical
[1] = biological target: human JAK3 catalytic kinase (JH1) domain (Homo sapiens (Human), UniProt P52333); test: ADP-Glo Kinase Assay, recombinant JAK3 catalytic kinase (JH1) domain; conditions: recombinant JH1 domain 0.3 nM, 4 μM ATP, JAK3-974 peptide, mean, read-out: JAK3 biochem IC50 (nM) Mean
Outline: (§1)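 Luminescent ADP read-out after residual ATP depletion, 100 min reaction. Kinase domain concentrations were 4 nM (JAK1), 0.2 nM (JAK2), 0.3 nM (JAK3) and 2 nM (TYK2), each with 50 μM peptide. IC50 values came from 4-parameter logistic fits over 11 points, 3-fold steps, top 10 μM or 1 μM.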

[2] = biological target: human JAK1 catalytic kinase (JH1) domain (Homo sapiens (Human), UniProt P23458); test: ADP-Glo Kinase Assay, recombinant JAK1 catalytic kinase (JH1) domain; conditions: recombinant JH1 domain 4 nM, 35 μM ATP, JAK3-342 peptide, mean, read-out: JAK1 biochem IC50 (nM) Mean
Chain of human JAK1 catalytic kinase (JH1) domain (P23458 875-1153): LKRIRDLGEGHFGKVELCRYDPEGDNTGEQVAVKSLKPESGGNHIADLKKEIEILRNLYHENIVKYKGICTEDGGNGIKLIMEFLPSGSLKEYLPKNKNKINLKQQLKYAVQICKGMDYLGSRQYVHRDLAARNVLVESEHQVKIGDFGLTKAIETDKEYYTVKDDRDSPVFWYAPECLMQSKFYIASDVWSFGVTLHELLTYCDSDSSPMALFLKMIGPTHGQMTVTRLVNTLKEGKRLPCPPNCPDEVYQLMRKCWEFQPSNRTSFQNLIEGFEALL
Outline: as §1

[3] = biological target: human JAK2 catalytic kinase (JH1) domain (Homo sapiens (Human), UniProt O60674); test: ADP-Glo Kinase Assay, recombinant JAK2 catalytic kinase (JH1) domain; conditions: recombinant JH1 domain 0.2 nM, 15 μM ATP, JAK3-974 peptide, mean, read-out: JAK2 biochem IC50 (nM) Mean
Chain of human JAK2 catalytic kinase (JH1) domain (O60674 849-1124): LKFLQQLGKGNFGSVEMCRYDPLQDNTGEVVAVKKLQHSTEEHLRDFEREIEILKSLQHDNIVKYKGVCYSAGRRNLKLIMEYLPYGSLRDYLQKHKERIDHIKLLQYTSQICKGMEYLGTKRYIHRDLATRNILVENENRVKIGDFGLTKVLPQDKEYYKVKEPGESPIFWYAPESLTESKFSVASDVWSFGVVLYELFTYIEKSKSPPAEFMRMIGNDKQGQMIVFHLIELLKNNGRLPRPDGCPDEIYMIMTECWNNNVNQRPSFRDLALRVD
Outline: as §1

[4] = biological target: human TYK2 catalytic kinase (JH1) domain (Homo sapiens (Human), UniProt P29597); test: ADP-Glo Kinase Assay, recombinant TYK2 catalytic kinase (JH1) domain; conditions: recombinant JH1 domain 2 nM, 10 μM ATP, JAK3-974 peptide, mean, read-out: TYK2 biochem IC50 (nM) Mean
Chain of human TYK2 catalytic kinase (JH1) domain (P29597 897-1176): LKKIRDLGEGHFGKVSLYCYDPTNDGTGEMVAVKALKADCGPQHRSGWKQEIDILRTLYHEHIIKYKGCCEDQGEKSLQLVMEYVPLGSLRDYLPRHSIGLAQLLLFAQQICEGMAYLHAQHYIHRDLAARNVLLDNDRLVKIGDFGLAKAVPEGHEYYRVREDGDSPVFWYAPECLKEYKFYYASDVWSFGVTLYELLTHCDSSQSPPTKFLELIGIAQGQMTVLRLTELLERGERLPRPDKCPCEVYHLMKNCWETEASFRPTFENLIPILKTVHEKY
Outline: as §1

Chain of human JAK3 catalytic kinase (JH1) domain (P52333 822-1111): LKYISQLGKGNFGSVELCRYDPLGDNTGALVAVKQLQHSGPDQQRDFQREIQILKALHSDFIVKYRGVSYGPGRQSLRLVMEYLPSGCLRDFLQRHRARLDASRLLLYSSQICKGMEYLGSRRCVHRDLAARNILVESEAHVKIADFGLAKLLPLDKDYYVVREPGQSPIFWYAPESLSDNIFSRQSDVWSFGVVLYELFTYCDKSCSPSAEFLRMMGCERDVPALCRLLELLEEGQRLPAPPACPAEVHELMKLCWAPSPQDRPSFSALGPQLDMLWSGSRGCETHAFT

Structure (SMILES)	IC50 [1] [nM]	IC50 [2] [nM]	IC50 [3] [nM]	IC50 [4] [nM]
O=S(=O)(C1CC1)N1C2CCC1CN(c1ncnn3cc(-c4cnn(C(F)F)c4)cc13)C2 [Example 188, 4-(8-(cyclopropylsulfonyl)-3,8-diazabicyclo[3.2.1]octan-3-yl)-6-(1-(difluoromethyl)-1H-pyrazol-4-yl)pyrrolo[2,1-f][1,2,4]triazine]	9390	9740	5890	615
O=C([C@@H]1C[C@H]1F)N1C2CCC1CN(c1ccnc3[nH]c(-c4ccc(C(F)F)nc4)nc13)C2 [Example 206]	744	24	35	6.8
Cn1cc(-c2cc3c(N4CC5CCC(C4)N5C(=O)[C@H]4C[C@H]4C#N)ncnn3c2)cn1 (single isomer, unassigned) [Example 85]	4450	3310	10000	751
CNc1ccc(-c2cc3c(N4CC5CCC(C4)N5C(=O)[C@@H]4C[C@H]4F)ccnn3c2)cn1 [Example 129, ((1S,2R)-2-fluorocyclopropyl)(3-(6-(6-(methylamino)pyridin-3-yl)pyrrolo[1,2-b]pyridazin-4-yl)-3,8-diazabicyclo[3.2.1]octan-8-yl)methanone]	658	69	73	3.8
COc1cc(-c2cc3c(N4CC5CCC(C4)N5C(=O)[C@@H]4C[C@H]4F)ccnn3c2)cnn1 [Example 137, ((1S,2R)-2-fluorocyclopropyl)(3-(6-(6-methoxypyridazin-4-yl)pyrrolo[1,2-b]pyridazin-4-yl)-3,8-diazabicyclo[3.2.1]octan-8-yl)methanone]	4200	150	220	17.6
O=C(C1CC1)N1C2CCC1CN(c1ncnn3cc(-c4ccccc4F)cc13)C2 [Example 182]	8600	3660	10000	704
Cc1cc(-c2nc3c(N4CC5CCC(C4)N5C(=O)[C@@H]4C[C@H]4F)ccnc3[nH]2)ccn1 [Example 202, ((1S,2R)-2-fluorocyclopropyl)(3-(2-(2-methylpyridin-4-yl)-3H-imidazo[4,5-b]pyridin-7-yl)-3,8-diazabicyclo[3.2.1]octan-8-yl)methanone]	199	5	14	2.5
CNc1cc(-c2cc3c(N4CC5CCC(C4)N5C(=O)[C@@H]4C[C@H]4F)ccnn3c2)ccn1 [Example 99, ((1S,2R)-2-fluorocyclopropyl)(3-(6-(2-(methylamino)pyridin-4-yl)pyrrolo[1,2-b]pyridazin-4-yl)-3,8-diazabicyclo[3.2.1]octan-8-yl)methanone]	211	10	18	0.7
N#Cc1cc(-c2cc3c(N4CC5CCC(C4)N5C(=O)[C@@H]4C[C@H]4F)ccnn3c2)ccn1 [Example 104, 4-(4-(8-((1S,2R)-2-fluorocyclopropane-1-carbonyl)-3,8-diazabicyclo[3.2.1]octan-3-yl)pyrrolo[1,2-b]pyridazin-6-yl)picolinonitrile]	886	46	47	3.4
N#Cc1cc(-c2cc3c(N4CC5CCC(C4)N5C(=O)[C@@H]4C[C@H]4F)ncnn3c2)ccn1 [Example 95, 4-(4-(8-((1S,2R)-2-fluorocyclopropane-1-carbonyl)-3,8-diazabicyclo[3.2.1]octan-3-yl)pyrrolo[2,1-f][1,2,4]triazin-6-yl)picolinonitrile]	7940	741	942	45.5
COc1cc(-c2cc3c(N4CC5CCC(C4)N5S(=O)(=O)C4CC4)ccnc3[nH]2)ccn1 [Example 194]	612	116	80	21
O=C([C@@H]1C[C@H]1F)N1C2CCC1CN(c1ncnn3cc(-c4ccnc(C(F)F)c4)cc13)C2 [Example 93, (3-(6-(2-(difluoromethyl)pyridin-4-yl)pyrrolo[2,1-f][1,2,4]triazin-4-yl)-3,8-diazabicyclo[3.2.1]octan-8-yl)((1S,2R)-2-fluorocyclopropyl)methanone]	3300	386	591	29.2
O=C([C@H]1C[C@@H]1F)N1C2CCC1CN(c1ncnn3cc(-c4cnn(C(F)F)c4)cc13)C2 [Example 4, (3-(6-(1-(difluoromethyl)-1H-pyrazol-4-yl)pyrrolo[2,1-f][1,2,4]triazin-4-yl)-3,8-diazabicyclo[3.2.1]octan-8-yl)((1R,2S)-2-fluorocyclopropyl)methanone]	776	452	1450	73.6
Cn1cc(-c2cn3ncc(F)c(N4CC5CCC(C4)N5C(=O)[C@@H]4C[C@H]4F)c3n2)cn1 (stereo in doubt) [Example 141, (3-(7-fluoro-2-(1-methyl-1H-pyrazol-4-yl)imidazo[1,2-b]pyridazin-8-yl)-3,8-diazabicyclo[3.2.1]octan-8-yl)((1S,2R)-2-fluorocyclopropyl)methanone]	285	57	97	9.4
Cn1cc(-c2cc3c(N4CC5CCC(C4)N5C(=O)C4COC4)ncnn3c2)cn1 [Example 71, (3-(6-(1-methyl-1H-pyrazol-4-yl)pyrrolo[2,1-f][1,2,4]triazin-4-yl)-3,8-diazabicyclo[3.2.1]octan-8-yl)(oxetan-3-yl)methanone]	10000	5320	10000	911
O=C([C@@H]1C[C@H]1F)N1C2CCC1CN(c1ccnn3cc(-c4ccc(C(F)(F)F)nc4)cc13)C2 [Example 117, ((1S,2R)-2-fluorocyclopropyl)(3-(6-(6-(trifluoromethyl)pyridin-3-yl)pyrrolo[1,2-b]pyridazin-4-yl)-3,8-diazabicyclo[3.2.1]octan-8-yl)methanone]	878	67	64	5.2
Cc1cncc(-c2cc3c(N4CC5CCC(C4)N5C(=O)[C@@H]4C[C@H]4F)ccnn3c2)n1 [Example 130, ((1S,2R)-2-fluorocyclopropyl)(3-(6-(6-methylpyrazin-2-yl)pyrrolo[1,2-b]pyridazin-4-yl)-3,8-diazabicyclo[3.2.1]octan-8-yl)methanone]	5420	806	674	52.8
COc1ncnc(-c2cc3c(N4CC5CCC(C4)N5C(=O)[C@@H]4C[C@H]4F)ccnn3c2)c1F [Example 107, (3-(6-(5-fluoro-6-methoxypyrimidin-4-yl)pyrrolo[1,2-b]pyridazin-4-yl)-3,8-diazabicyclo[3.2.1]octan-8-yl)((1S,2R)-2-fluorocyclopropyl)methanone]	10000	862	1680	92.3
O=C(C1CC1)N1C2CCC1CN(c1ncnn3cc(-c4ccc(Cl)nc4)cc13)C2 [Example 179]	9270	5400	10000	684
O=C([C@@H]1C[C@H]1F)N1C2CCC1CN(c1ccnn3cc(-c4ccc(OC(F)F)nc4)cc13)C2 [Example 115, (3-(6-(6-(difluoromethoxy)pyridin-3-yl)pyrrolo[1,2-b]pyridazin-4-yl)-3,8-diazabicyclo[3.2.1]octan-8-yl)((1S,2R)-2-fluorocyclopropyl)methanone]	961	105	82	6
